According to patent US6967095B2, “Human secretory type phospholipase A2” (Shionogi & Co., Ltd., priority 1998, dated 2005):

How the values were obtained:
[1] = target: T1, human IIA type secretory PLA2 (Homo sapiens, UniProt P14555); test: Inhibition of secretory PLA2 activity, release of 14C-oleic acid from 14C-POPC; format: biochemical; settings: purified human IIA type (10 ng); 1 mM POPC, 3 mM deoxycholic acid, 2 mM CaCl2, pH 8.0, 40° C., 60 min; FIG. 4
T1 sequence (P14555 21-144): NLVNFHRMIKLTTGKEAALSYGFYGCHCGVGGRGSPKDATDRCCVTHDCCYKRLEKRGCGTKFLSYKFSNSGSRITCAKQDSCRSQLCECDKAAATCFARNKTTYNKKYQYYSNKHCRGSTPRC
Protocol: (§1) Inhibitory activity against this novel type of human secretory type PLA2 was determined with Indoxam that is a 1-oxamoylindolidine derivative. It has already been reported that Indoxam inhibits the enzymatic activities of IIA type and IB type secretory type PLA2 (Yokota et al., Biochim. Biophys. Acta (1999) 1438, 213-222). The PLA2 activities were determined by the measurement of the quantity of released ^14C-oleic acid from ^14C-labeled 1-palmitoyl-2-oleoyl-phosphatidylcholine (POPC), according to the Draheim et al.'s method (J. Med. Chem., (1996) 39, 5159-5175). In the solution composed of 50 mM Tris-HCl (pH 8.0), 200 mM NaCl, 2 mM CaCl2, and 1 mg/ml bovine serum albumin, the substrates composed of 1 mM POPC (the mixture of about 100,000 cpm ^-C-POPC and unlabeled POPC) and 3 mM deoxycholic acid were incubated with each secretory PLA2 in the presence of various concentrations of Indoxam at 40° C. for 60 min. Then, the quantity of released ^-C-oleic acid was measured. Purified materials were used in the case with human IB type (2 ng), IIA type (10 ng) and X type (4 ng). […]
(§2) The quantity of released ^14C-oleic acid from ^14C-POPC by each human secretory type PLA2 in the absence of Indoxam was regarded as 100% and the quantity of released ^14C-oleic acid in the presence of each concentration of Indoxam was shown as %.

[2] = target: T2, human PLA2 of this invention (IID type) (Homo sapiens, UniProt Q9UNK4); test: as above; format: biochemical; settings: IID type from culture supernatant of CHO cells; 1 mM POPC, 3 mM deoxycholic acid, 2 mM CaCl2, pH 8.0, 40° C., 60 min; FIG. 4
T2 construct: made in house
T2 sequence (Q9UNK4 21-145): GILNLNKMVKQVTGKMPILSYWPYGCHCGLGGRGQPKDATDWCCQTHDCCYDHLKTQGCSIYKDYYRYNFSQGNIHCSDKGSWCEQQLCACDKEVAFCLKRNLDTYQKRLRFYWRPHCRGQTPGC
Protocol: as §1, §2

[3] = target: T3, IIA type secretory type PLA2 (Homo sapiens, UniProt P14555); settings: already reported, Yokota et al., Biochim. Biophys. Acta (1999) 1438, 213-222; cited from earlier work
T3 sequence (P14555 21-144): T1 sequence (P14555 21-144)

[4] = target: IB type secretory type PLA2 (Homo sapiens, UniProt P04054); settings: already reported, Yokota et al., Biochim. Biophys. Acta (1999) 1438, 213-222; cited from earlier work
Chain of IB type secretory type PLA2 (P04054 23-148): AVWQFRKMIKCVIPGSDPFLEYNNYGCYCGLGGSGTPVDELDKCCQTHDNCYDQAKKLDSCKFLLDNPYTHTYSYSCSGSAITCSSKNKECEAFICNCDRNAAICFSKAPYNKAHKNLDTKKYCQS

CCc1c(C(=O)C(N)=O)c2c(OCC(=O)O)cccn2c1Cc1ccccc1-c1ccccc1 [Indoxam]
inhibition of enzymatic activity (released 14C-oleic acid as % of that without Indoxam) [1]: strongly inhibits | inhibition of enzymatic activity (released 14C-oleic acid as % of that without Indoxam) [2]: strongly inhibits | inhibition of enzymatic activity of IIA type secretory type PLA2 [3]: inhibits | inhibition of enzymatic activity of IB type secretory type PLA2 [4]: inhibits
